Assay results reported in patent publication EP1220852B1, “SUBSTITUTED DIAZEPANS” (Novartis AG, priority 1999, dated 2001).
pIC50: −log10 of the molar value.

Columns and labels:
LFA-1/ICAM-1 = target: T1, LFA-1/ICAM-1 (Homo sapiens, UniProt P05107+P20701); experiment: Cell free assay: binding of soluble human ICAM-1 to immobilized human LFA-1
T1 construct: endogenous in cells; host or cells: LFA-1: endogenous protein purified from JY cells (human lymphoblastoid B cell line); ICAM-1-Cκ fusion: made in house with the baculovirus system
Experimental: A. In vitro: Cell Free Assay
The assay measures the binding of soluble human ICAM-1 to immobilized human LFA-1. LFA-1 is purified from JY cells, a human lymphoblastoid B cell-line, by immunoaffinity chromatography as described by Dustin et a/. […] ICAM-1 mouse Cκ fusion protein (ICAM-1) is produced using the baculovirus system as described by Weitz-Schmidt et al. (Anal. Biochem.238,184-190, 1996).
Purified LFA-1 is diluted 1:20 in phosphate buffered saline (PBS) containing 2 mM MgCl2, pH 7.4 and coated onto microtitre plates (Nunc) at 37°C for 3h. Plates are blocked with 1% heat-treated BSA in PBS for 2 hours at 37°C followed by a washing step using PBS, 2mM MgCl2, 1% fetal calf serum, pH 7.4 (assay buffer). Compounds dissolved at 10 mM in DMSO are diluted in assay buffer and added to the plates. Biotinylated recombinant ICAM-1 in assay buffer (6 µg/ml) is added and allowed to bind at 37°C for one hour. After incubation, wells are washed with assay buffer. Streptavidin-peroxidase diluted 1:5000 in assay buffer is added and incubated for 45 min at 37 °C. Plates are then washed with assay buffer and 2.2'-azino-bis(3-ethylbenzothiazoiine-6 sulfonic acid) diammonium salt substrate solution is added to each well. The reaction is stopped after 20 min and bound ICAM-1 is determined by measuring the optical density at 405 nm in a microplate reader.

[1] = system: allergic contact dermatitis; experiment: Allergic contact dermatitis (ACD), oxazolone-induced, pinnal weight; format: in vivo, female NMRI mice; conditions: pinnal weight 24 h after challenge
Experimental: ii) Allergic Contact Dermatitis (ACD)
Groups of 8 female NMRI mice are sensitized on the shaved abdomen with 50 µl of oxazolone (Sigma, 2% in acetone) and challenged with 10 µl of 0.2 or 2.0% oxazolone on the inner surface of the right ear 7 days later. The low concentration of oxazolone for induction of the elicitation phase is used for testing compounds on […] activity whereas the high concentration is applied for […] testing. The unchallenged left ears serve as normal controls and dermatitis is evaluated from the individual differences in pinnal weight, which is taken as a measure of increase in inflammatory swelling 24 h after the challenge. Dermatitis is evaluated in test- and for comparison in control groups. The test groups are treated with the test compounds either orally (twice, 2 h and immediately before challenge), subcutaneously (immediately before challenge) or topically (30 min after challenge at the site of elicitation of the ACD); the controls are treated similarly with the vehicles alone. […] The data of the test- and the vehicle-treated control groups are statistically analysed by ANOVA followed by Dunnet T-test (normal distribution or data) or by H and U-test, respectively. […]

T1 sequence (P20701 26-1170): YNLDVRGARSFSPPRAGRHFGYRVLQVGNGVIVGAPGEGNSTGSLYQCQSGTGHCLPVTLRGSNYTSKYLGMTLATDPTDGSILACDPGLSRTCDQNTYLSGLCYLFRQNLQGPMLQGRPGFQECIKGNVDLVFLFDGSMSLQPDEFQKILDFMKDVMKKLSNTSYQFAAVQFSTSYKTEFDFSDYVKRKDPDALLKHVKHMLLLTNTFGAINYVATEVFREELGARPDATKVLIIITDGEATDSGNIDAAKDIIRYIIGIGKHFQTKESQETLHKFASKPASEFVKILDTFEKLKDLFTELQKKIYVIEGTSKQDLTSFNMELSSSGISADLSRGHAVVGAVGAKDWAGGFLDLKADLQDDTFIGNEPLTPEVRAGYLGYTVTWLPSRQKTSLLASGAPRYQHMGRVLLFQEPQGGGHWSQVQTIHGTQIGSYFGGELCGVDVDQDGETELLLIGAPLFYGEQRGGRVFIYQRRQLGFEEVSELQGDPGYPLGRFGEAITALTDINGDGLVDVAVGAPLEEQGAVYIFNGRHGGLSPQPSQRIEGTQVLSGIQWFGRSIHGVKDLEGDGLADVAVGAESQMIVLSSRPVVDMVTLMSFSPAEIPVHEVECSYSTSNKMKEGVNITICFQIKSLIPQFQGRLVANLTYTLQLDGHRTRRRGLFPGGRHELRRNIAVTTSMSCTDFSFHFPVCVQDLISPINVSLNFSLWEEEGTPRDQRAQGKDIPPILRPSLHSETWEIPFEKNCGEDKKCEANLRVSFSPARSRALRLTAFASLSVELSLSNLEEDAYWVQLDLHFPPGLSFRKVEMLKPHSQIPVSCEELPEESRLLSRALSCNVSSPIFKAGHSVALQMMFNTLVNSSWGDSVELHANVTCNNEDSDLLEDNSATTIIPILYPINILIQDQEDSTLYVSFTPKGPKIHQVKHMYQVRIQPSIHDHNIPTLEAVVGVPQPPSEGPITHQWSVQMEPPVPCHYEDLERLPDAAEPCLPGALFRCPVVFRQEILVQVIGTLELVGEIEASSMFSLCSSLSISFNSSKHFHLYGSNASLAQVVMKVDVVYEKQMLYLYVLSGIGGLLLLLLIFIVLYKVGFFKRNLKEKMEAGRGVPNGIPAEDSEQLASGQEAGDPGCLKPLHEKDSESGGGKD
T1 sequence (P05107 23-769): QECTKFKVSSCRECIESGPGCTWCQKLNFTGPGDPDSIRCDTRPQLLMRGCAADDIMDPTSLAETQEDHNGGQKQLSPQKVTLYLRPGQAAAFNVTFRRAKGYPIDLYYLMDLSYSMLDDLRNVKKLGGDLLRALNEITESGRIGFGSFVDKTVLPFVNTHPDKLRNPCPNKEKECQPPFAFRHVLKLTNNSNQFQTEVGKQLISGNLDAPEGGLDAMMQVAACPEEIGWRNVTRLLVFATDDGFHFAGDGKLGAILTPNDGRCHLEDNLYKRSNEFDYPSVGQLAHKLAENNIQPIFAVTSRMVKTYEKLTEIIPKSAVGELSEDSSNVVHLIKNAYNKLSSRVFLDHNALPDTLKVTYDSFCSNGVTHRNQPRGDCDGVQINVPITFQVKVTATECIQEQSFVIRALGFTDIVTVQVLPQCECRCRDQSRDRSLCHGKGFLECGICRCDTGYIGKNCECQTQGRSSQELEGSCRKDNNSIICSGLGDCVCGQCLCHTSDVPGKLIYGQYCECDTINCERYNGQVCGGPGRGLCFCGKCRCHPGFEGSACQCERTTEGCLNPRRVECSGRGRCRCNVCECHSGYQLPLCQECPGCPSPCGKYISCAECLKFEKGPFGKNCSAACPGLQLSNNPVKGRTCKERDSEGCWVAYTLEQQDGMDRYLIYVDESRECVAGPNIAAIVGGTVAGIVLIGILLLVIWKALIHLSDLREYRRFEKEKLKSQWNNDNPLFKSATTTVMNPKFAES

pIC50 (LFA-1/ICAM-1): 7.15
SMILES: C[C@@H]1CCN([C@H](Cc2cccc3ccccc23)C(N)=O)C(=O)[C@H](c2ccccc2)N1C(=O)Cc1ccc2ncccc2c1 [Example 3, (R)-2-[(3S,5R)-5-Methyl-2-oxo-3-phenyl-4-(quinolin-6-yl-acetyl)-[1,4]diazepan-1-yl)-3-(naphthalen-1-yl)-propionamide]
inhibiting effect ([1]; administered p.o. at a dose of 2 x 3 mg/kg): 40%
inhibiting effect ([1]; applied topically at a dose of 10 mM): 50%
